Assay results reported in patent publication US12559492B2, “BRAF degraders” (C4 Therapeutics, Inc., priority 2020, dated 2026).
Structures can show the parent of a compound that is named as a salt.

Target: BRAF^V600E protein (Homo sapiens, UniProt P15056, V600E)
Assay: HiBiT cellular BRAF V600E degradation assay
Assay type: cell-based
Details: 24 h incubation; for DC50: A375.10 cells (HiBiT tag knocked in at N-terminal of BRAF V600E), concentration at which 50% of total cellular BRAF V600E is degraded; for Emax: read-out: HiBit 24 h Emax
[1] = A375.10 cells, Emax = amount of residual protein remaining in the cell after compound treatment

Chain of BRAF^V600E protein (P15056 whole entry V600E): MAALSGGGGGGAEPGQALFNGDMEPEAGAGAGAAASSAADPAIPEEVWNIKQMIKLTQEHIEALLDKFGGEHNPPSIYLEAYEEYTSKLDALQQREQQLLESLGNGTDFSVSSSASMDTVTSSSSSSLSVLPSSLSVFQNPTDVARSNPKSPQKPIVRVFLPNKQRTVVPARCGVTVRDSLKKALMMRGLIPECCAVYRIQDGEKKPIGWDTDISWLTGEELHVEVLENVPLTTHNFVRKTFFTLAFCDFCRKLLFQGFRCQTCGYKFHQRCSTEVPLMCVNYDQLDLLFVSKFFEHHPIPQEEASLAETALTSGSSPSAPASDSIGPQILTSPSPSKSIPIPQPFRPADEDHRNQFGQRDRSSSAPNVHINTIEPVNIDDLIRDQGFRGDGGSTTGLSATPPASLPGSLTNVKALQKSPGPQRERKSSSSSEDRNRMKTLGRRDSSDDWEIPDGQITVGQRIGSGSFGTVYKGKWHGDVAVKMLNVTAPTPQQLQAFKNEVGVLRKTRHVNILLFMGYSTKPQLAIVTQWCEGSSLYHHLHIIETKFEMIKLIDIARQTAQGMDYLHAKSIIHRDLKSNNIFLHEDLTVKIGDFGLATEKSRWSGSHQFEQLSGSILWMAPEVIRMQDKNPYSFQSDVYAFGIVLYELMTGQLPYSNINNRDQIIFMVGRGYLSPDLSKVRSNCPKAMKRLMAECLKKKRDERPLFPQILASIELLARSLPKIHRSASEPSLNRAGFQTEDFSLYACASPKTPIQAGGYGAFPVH

DC50	Emax [1]	HiBit 24 h Emax [1]	Compound
5 nM	8%	–	CCN(C)S(=O)(=O)Nc1ccc(F)c(C(=O)c2c[nH]c3ncc(-c4cnc(N5CCN(C(=O)CN6CCC(c7ccc(N8CCC(=O)NC8=O)cc7)CC6)CC5)nc4)cc23)c1F [Example A91, 5-[2-[4-[2-[4-[4-(2,4-Dioxo-1,3-diazinan-1-yl)phenyl]piperidin-1-yl]acetyl]piperazin-1-yl]pyrimidin-5-yl]-3-[3-[[ethyl(methyl)sulfamoyl]amino]-2,6-difluorobenzoyl]-1H-pyrrolo[2,3-b]pyridine]
8 nM	7%	–	CCN(C)S(=O)(=O)Nc1ccc(F)c(C(=O)c2c[nH]c3ncc(-c4cnc(N5CCC(N(C)C(=O)CN6CCC(c7ccc(NC8CCC(=O)NC8=O)cn7)CC6)CC5)nc4)cc23)c1F (centres unmarked) [Example A92, 2-[4-[5-[(2,6-Dioxopiperidin-3-yl)amino]pyridin-2-yl]piperidin-1-yl]-N-[1-[5-[3-[3-[[ethyl(methyl)sulfamoyl]amino]-2,6-difluorobenzoyl]-1H-pyrrolo[2,3-b]pyridin-5-yl]pyrimidin-2-yl]piperidin-4-yl]-N-methylacetamide; formic acid]
16 nM	14%	–	CCN(C)S(=O)(=O)Nc1ccc(F)c(C(=O)c2c[nH]c3ncc(-c4cnc(N5CCC(NCC(=O)N6CCC(c7ccc(NC8CCC(=O)NC8=O)cn7)CC6)CC5)nc4)cc23)c1F (centres unmarked) [Example A93, 5-[2-[4-[[2-[4-[5-[(2,6-Dioxopiperidin-3-yl)amino]pyridin-2-yl]piperidin-1-yl]-2-oxoethyl]amino]piperidin-1-yl]pyrimidin-5-yl]-3-[3-[[ethyl(methyl)sulfamoyl]amino]-2,6-difluorobenzoyl]-1H-pyrrolo[2,3-b]pyridine;formic acid]
13 nM	–	8%	CCN(C)S(=O)(=O)Nc1ccc(F)c(C(=O)c2c[nH]c3ncc(-c4cnc(N5CCC(C(=O)N6CCC(c7ccc(NC8CCC(=O)NC8=O)cc7)CC6)CC5)nc4)cc23)c1F (centres unmarked) [Example A94, 5-[2-[4-[4-[4-[(2,6-Dioxopiperidin-3-yl)amino]phenyl]piperidine-1-carbonyl]piperidin-1-yl]pyrimidin-5-yl]-3-[3-[[ethyl(methyl)sulfamoyl]amino]-2,6-difluorobenzoyl]-1H-pyrrolo[2,3-b]pyridine]
11 nM	7%	–	CCN(C)S(=O)(=O)Nc1ccc(F)c(C(=O)c2c[nH]c3ncc(-c4ccc(N5CCC(N(C)C(=O)CN6CCC(c7ccc(NC8CCC(=O)NC8=O)cn7)CC6)CC5)nc4)cc23)c1F (centres unmarked) [Example A95, 2-[4-[5-[(2,6-Dioxopiperidin-3-yl)amino]pyridin-2-yl]piperidin-1-yl]-N-[1-[5-[3-[3-[[ethyl(methyl)sulfamoyl]amino]-2,6-difluorobenzoyl]-1H-pyrrolo[2,3-b]pyridin-5-yl]pyridin-2-yl]piperidin-4-yl]-N-methylacetamide;hydrochloride]
18 nM	9%	–	CCN(C)S(=O)(=O)Nc1ccc(F)c(C(=O)c2c[nH]c3ncc(-c4ccc(N5CCC(NCC(=O)N6CCC(c7ccc(NC8CCC(=O)NC8=O)cn7)CC6)CC5)cc4)cc23)c1F (centres unmarked) [Example A96, 5-[4-[4-[[2-[4-[5-[(2,6-Dioxopiperidin-3-yl)amino]pyridin-2-yl]piperidin-1-yl]-2-oxoethyl]amino]piperidin-1-yl]phenyl]-3-[3-[[ethyl(methyl)sulfamoyl]amino]-2,6-difluorobenzoyl]-1H-pyrrolo[2,3-b]pyridine; hydrochloride]
84 nM	12%	–	CCN(C)S(=O)(=O)Nc1ccc(F)c(C(=O)c2c[nH]c3ncc(-c4ccc(N5CCC(NCC(=O)N6CCC(c7ccc(OC8CCC(=O)NC8=O)cn7)CC6)CC5)cc4)cc23)c1F (centres unmarked) [Example A97, 5-[4-[4-[[2-[4-[5-(2,6-Dioxopiperidin-3-yl)oxypyridin-2-yl]piperidin-1-yl]-2-oxoethyl]amino]piperidin-1-yl]phenyl]-3-[3-[[ethyl(methyl)sulfamoyl]amino]-2,6-difluorobenzoyl]-1H-pyrrolo[2,3-b]pyridine;hydrochloride]
